Experimental data taken from patent US11246863B2 (ALK-ABELLÓ, INC., priority 2015, dated 2022).
Where two headings read alike, the source gives them in different places.

Assays:
Pseudomonas aeruginosa = conditions: cited from earlier work
Streptococcus pneumoniae = conditions: cited from earlier work
Staphylococcus aureus = conditions: cited from earlier work
rats = conditions: oral doses up to 100 mg/kg/day; cited from earlier work
Moraxella catarrhalis = conditions: cited from earlier work
Haemophilus influenzae = conditions: cited from earlier work
[1] = Loss on drying (weight loss upon heating); format: physicochemical; conditions: solid held at 40° C. 24 hours, then 125° C. oven one hour
Description: To assess the form of ciprofloxacin samples described in the present disclosure, a comparison experiment is conducted to evaluate the sample's loss of weight upon heating. […] The conditions and results of the experiment are summarized below: Experimental Setup—Loss on Drying: • If suspension: Pipette Cipro suspension onto filter on vacuum filter flask • Transfer filter/dry powder to 40° C. oven, hold 24 hours • Transfer solid to pre-weighed aluminum pan and weigh solid • Transfer pan to 125° C. oven, hold one hour • Weigh again and determine weight loss due to 125° C.

[2] = Particle size (D90) during manufacturing process; format: physicochemical

SMILES | antimicrobial activity against isolates (Pseudomonas aeruginosa) | antimicrobial activity against isolates (Streptococcus pneumoniae) | antimicrobial activity against isolates (Staphylococcus aureus) | impairment of fertility (rats) | antimicrobial activity against isolates (Moraxella catarrhalis) | antimicrobial activity against isolates (Haemophilus influenzae) | Weight Loss on Drying [1] [%] | particle size D90 ([2]; listed as Ciprofloxacin free base anhydrous API powder) | particle size D90 [2]
O=C(O)c1cn(C2CC2)c2cc(N3CCNCC3)c(F)cc2c1=O [Ciprofloxacin, 1-cyclopropyl-6-fluoro-1,4-dihydro-4-oxo-7-(1-piperazinyl)-3-quinolinecarboxylic acid] | active against most isolates | active against most isolates | active against most isolates | no evidence of impairment | active against most isolates | active against most isolates |  |  | 
O=C(O)c1cn(C2CC2)c2cc(N3CCNCC3)c(F)cc2c1=O [Sample 1] |  |  |  |  |  |  | 0.1 | under 15 μm | 
O=C(O)c1cn(C2CC2)c2cc(N3CCNCC3)c(F)cc2c1=O [Sample 2] |  |  |  |  |  |  | 11.1 |  | around 60 μm
